The supplement of paper PMC10307832

Key:
Experiment in all cases: relative viability (nuclei count vs DMSO), 5 days (fraction); higher = more cells survive
SGI-1776 + Linsitinib = compound: CN1CCC(CNc2ccc3ncc(-c4cccc(OC(F)(F)F)c4)n3n2)CC1 [SGI-1776] + C[C@]1(O)C[C@@H](c2nc(-c3ccc4ccc(-c5ccccc5)nc4c3)c3c(N)nccn32)C1 [Linsitinib] (partner 1 µM)
Method in brief: (§1)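 Medians of duplicate plates are given as relative viability. That measure is the nuclei count in treated wells divided by the count in vehicle wells. Counts were taken on 4× images of lung cancer cell lines in 1536-well plates, 5 days after pin-tool dosing the day after seeding with one drug alone or a fixed anchor-drug dose plus five library-drug doses (not always all listed) in √10 steps.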

Entinostat + OSI-027 = compound: Nc1ccccc1NC(=O)c1ccc(CNC(=O)OCc2cccnc2)cc1 [Entinostat] + COc1cccc2cc(-c3nc([C@H]4CC[C@H](C(=O)O)CC4)n4ncnc(N)c34)[nH]c12 [OSI-027] (partner 0.5 µM)
Method in brief: as §1

Entinostat + AZD7762 = compound: Nc1ccccc1NC(=O)c1ccc(CNC(=O)OCc2cccnc2)cc1 [Entinostat] + NC(=O)Nc1cc(-c2cccc(F)c2)sc1C(=O)N[C@H]1CCCNC1 [AZD7762] (partner 0.2 µM)
Method in brief: as §1

Entinostat + Pemetrexed = compound: Nc1ccccc1NC(=O)c1ccc(CNC(=O)OCc2cccnc2)cc1 [Entinostat] + Nc1nc2[nH]cc(CCc3ccc(C(=O)N[C@@H](CCC(=O)O)C(=O)O)cc3)c2c(=O)[nH]1 [Pemetrexed] (partner 0.2 µM)
Method in brief: as §1

## NCI-H596
SGI-1776 + Linsitinib; first compound 0.08 µM
  relative viability: 1.05
SGI-1776 + Linsitinib; first compound 0.8 µM
  relative viability: 0.999
SGI-1776 + Linsitinib; first compound 2.53 µM
  relative viability: 0.981
SGI-1776 + Linsitinib; first compound 8 µM
  relative viability: 0.943
Entinostat + OSI-027; first compound 0.02 µM
  relative viability: 0.716
Entinostat + OSI-027; first compound 0.06325 µM
  relative viability: 0.804
Entinostat + OSI-027; first compound 0.2 µM
  relative viability: 0.708
Entinostat + OSI-027; first compound 0.6325 µM
  relative viability: 0.443
Entinostat + OSI-027; first compound 2 µM
  relative viability: 0.412
Entinostat + AZD7762; first compound 0.02 µM
  relative viability: 1.19
Entinostat + AZD7762; first compound 0.06325 µM
  relative viability: 1.11
Entinostat + AZD7762; first compound 0.2 µM
  relative viability: 1.14
Entinostat + AZD7762; first compound 0.6325 µM
  relative viability: 0.817
Entinostat + AZD7762; first compound 2 µM
  relative viability: 0.829
Entinostat + Pemetrexed; first compound 0.02 µM
  relative viability: 0.499
Entinostat + Pemetrexed; first compound 0.06325 µM
  relative viability: 0.514
Entinostat + Pemetrexed; first compound 0.2 µM
  relative viability: 0.528
Entinostat + Pemetrexed; first compound 0.6325 µM
  relative viability: 0.439
Entinostat + Pemetrexed; first compound 2 µM
  relative viability: 0.446

## NCI-H1734
SGI-1776 + Linsitinib; first compound 0.08 µM
  relative viability: 0.919
SGI-1776 + Linsitinib; first compound 0.8 µM
  relative viability: 0.895
SGI-1776 + Linsitinib; first compound 2.53 µM
  relative viability: 0.935
SGI-1776 + Linsitinib; first compound 8 µM
  relative viability: 0.749
Entinostat + OSI-027; first compound 0.02 µM
  relative viability: 0.635
Entinostat + OSI-027; first compound 0.06325 µM
  relative viability: 0.772
Entinostat + OSI-027; first compound 0.2 µM
  relative viability: 0.59
Entinostat + OSI-027; first compound 0.6325 µM
  relative viability: 0.5
Entinostat + OSI-027; first compound 2 µM
  relative viability: 0.488
Entinostat + AZD7762; first compound 0.02 µM
  relative viability: 0.5
Entinostat + AZD7762; first compound 0.06325 µM
  relative viability: 0.476
Entinostat + AZD7762; first compound 0.2 µM
  relative viability: 0.364
Entinostat + AZD7762; first compound 0.6325 µM
  relative viability: 0.259
Entinostat + AZD7762; first compound 2 µM
  relative viability: 0.244
Entinostat + Pemetrexed; first compound 0.02 µM
  relative viability: 0.436
Entinostat + Pemetrexed; first compound 0.06325 µM
  relative viability: 0.419
Entinostat + Pemetrexed; first compound 0.2 µM
  relative viability: 0.492
Entinostat + Pemetrexed; first compound 0.6325 µM
  relative viability: 0.414
Entinostat + Pemetrexed; first compound 2 µM
  relative viability: 0.382

## LOU-NH91
SGI-1776 + Linsitinib; first compound 0.08 µM
  relative viability: 1.06
SGI-1776 + Linsitinib; first compound 0.8 µM
  relative viability: 1.03
SGI-1776 + Linsitinib; first compound 2.53 µM
  relative viability: 0.955
SGI-1776 + Linsitinib; first compound 8 µM
  relative viability: 0.666
Entinostat + OSI-027; first compound 0.02 µM
  relative viability: 0.719
Entinostat + OSI-027; first compound 0.06325 µM
  relative viability: 0.761
Entinostat + OSI-027; first compound 0.2 µM
  relative viability: 0.708
Entinostat + OSI-027; first compound 0.6325 µM
  relative viability: 0.652
Entinostat + OSI-027; first compound 2 µM
  relative viability: 0.585
Entinostat + AZD7762; first compound 0.02 µM
  relative viability: 0.729
Entinostat + AZD7762; first compound 0.06325 µM
  relative viability: 0.807
Entinostat + AZD7762; first compound 0.2 µM
  relative viability: 0.735
Entinostat + AZD7762; first compound 0.6325 µM
  relative viability: 0.664
Entinostat + AZD7762; first compound 2 µM
  relative viability: 0.653
Entinostat + Pemetrexed; first compound 0.02 µM
  relative viability: 0.381
Entinostat + Pemetrexed; first compound 0.06325 µM
  relative viability: 0.333
Entinostat + Pemetrexed; first compound 0.2 µM
  relative viability: 0.326
Entinostat + Pemetrexed; first compound 0.6325 µM
  relative viability: 0.341
Entinostat + Pemetrexed; first compound 2 µM
  relative viability: 0.379

## NCI-H1793
SGI-1776 + Linsitinib; first compound 0.08 µM
  relative viability: 1.06
SGI-1776 + Linsitinib; first compound 0.8 µM
  relative viability: 0.895
SGI-1776 + Linsitinib; first compound 2.53 µM
  relative viability: 1
SGI-1776 + Linsitinib; first compound 8 µM
  relative viability: 0.794
Entinostat + OSI-027; first compound 0.02 µM
  relative viability: 0.291
Entinostat + OSI-027; first compound 0.06325 µM
  relative viability: 0.316
Entinostat + OSI-027; first compound 0.2 µM
  relative viability: 0.285
Entinostat + OSI-027; first compound 0.6325 µM
  relative viability: 0.2
Entinostat + OSI-027; first compound 2 µM
  relative viability: 0.204
Entinostat + AZD7762; first compound 0.02 µM
  relative viability: 0.508
Entinostat + AZD7762; first compound 0.06325 µM
  relative viability: 0.643
Entinostat + AZD7762; first compound 0.2 µM
  relative viability: 0.302
Entinostat + AZD7762; first compound 0.6325 µM
  relative viability: 0.23
Entinostat + AZD7762; first compound 2 µM
  relative viability: 0.302
Entinostat + Pemetrexed; first compound 0.02 µM
  relative viability: 0.984
Entinostat + Pemetrexed; first compound 0.06325 µM
  relative viability: 1.08
Entinostat + Pemetrexed; first compound 0.2 µM
  relative viability: 1.08
Entinostat + Pemetrexed; first compound 0.6325 µM
  relative viability: 0.572
Entinostat + Pemetrexed; first compound 2 µM
  relative viability: 0.316

## NCI-H322M
SGI-1776 + Linsitinib; first compound 0.08 µM
  relative viability: 1.01
SGI-1776 + Linsitinib; first compound 0.8 µM
  relative viability: 1.04
SGI-1776 + Linsitinib; first compound 2.53 µM
  relative viability: 0.933
SGI-1776 + Linsitinib; first compound 8 µM
  relative viability: 0.774
Entinostat + OSI-027; first compound 0.02 µM
  relative viability: 0.608
Entinostat + OSI-027; first compound 0.06325 µM
  relative viability: 0.54
Entinostat + OSI-027; first compound 0.2 µM
  relative viability: 0.558
Entinostat + OSI-027; first compound 0.6325 µM
  relative viability: 0.483
Entinostat + OSI-027; first compound 2 µM
  relative viability: 0.371
Entinostat + AZD7762; first compound 0.02 µM
  relative viability: 0.591
Entinostat + AZD7762; first compound 0.06325 µM
  relative viability: 0.64
Entinostat + AZD7762; first compound 0.2 µM
  relative viability: 0.958
Entinostat + AZD7762; first compound 0.6325 µM
  relative viability: 0.731
Entinostat + AZD7762; first compound 2 µM
  relative viability: 0.621
Entinostat + Pemetrexed; first compound 0.02 µM
  relative viability: 0.66
Entinostat + Pemetrexed; first compound 0.06325 µM
  relative viability: 0.692
Entinostat + Pemetrexed; first compound 0.2 µM
  relative viability: 0.716
Entinostat + Pemetrexed; first compound 0.6325 µM
  relative viability: 0.599
Entinostat + Pemetrexed; first compound 2 µM
  relative viability: 0.583

## PC-3 [JPC-3]
SGI-1776 + Linsitinib; first compound 0.08 µM
  relative viability: 0.999
SGI-1776 + Linsitinib; first compound 0.8 µM
  relative viability: 0.974
SGI-1776 + Linsitinib; first compound 2.53 µM
  relative viability: 1.02
SGI-1776 + Linsitinib; first compound 8 µM
  relative viability: 0.917
Entinostat + OSI-027; first compound 0.02 µM
  relative viability: 0.761
Entinostat + OSI-027; first compound 0.06325 µM
  relative viability: 0.745
Entinostat + OSI-027; first compound 0.2 µM
  relative viability: 0.57
Entinostat + OSI-027; first compound 0.6325 µM
  relative viability: 0.432
Entinostat + OSI-027; first compound 2 µM
  relative viability: 0.306
Entinostat + AZD7762; first compound 0.02 µM
  relative viability: 1.06
Entinostat + AZD7762; first compound 0.06325 µM
  relative viability: 0.804
Entinostat + AZD7762; first compound 0.2 µM
  relative viability: 0.738
Entinostat + AZD7762; first compound 0.6325 µM
  relative viability: 0.522
Entinostat + AZD7762; first compound 2 µM
  relative viability: 0.231
Entinostat + Pemetrexed; first compound 0.02 µM
  relative viability: 1.36
Entinostat + Pemetrexed; first compound 0.06325 µM
  relative viability: 1.05
Entinostat + Pemetrexed; first compound 0.2 µM
  relative viability: 0.924
Entinostat + Pemetrexed; first compound 0.6325 µM
  relative viability: 0.686
Entinostat + Pemetrexed; first compound 2 µM
  relative viability: 0.461

## EPLC-272H
SGI-1776 + Linsitinib; first compound 0.08 µM
  relative viability: 1.18
SGI-1776 + Linsitinib; first compound 0.8 µM
  relative viability: 1.19
SGI-1776 + Linsitinib; first compound 2.53 µM
  relative viability: 1.34
SGI-1776 + Linsitinib; first compound 8 µM
  relative viability: 1.11
Entinostat + OSI-027; first compound 0.02 µM
  relative viability: 0.285
Entinostat + OSI-027; first compound 0.06325 µM
  relative viability: 0.359
Entinostat + OSI-027; first compound 0.2 µM
  relative viability: 0.314
Entinostat + OSI-027; first compound 0.6325 µM
  relative viability: 0.245
Entinostat + OSI-027; first compound 2 µM
  relative viability: 0.214
Entinostat + AZD7762; first compound 0.02 µM
  relative viability: 0.339
Entinostat + AZD7762; first compound 0.06325 µM
  relative viability: 0.224
Entinostat + AZD7762; first compound 0.2 µM
  relative viability: 0.141
Entinostat + AZD7762; first compound 0.6325 µM
  relative viability: 0.137
Entinostat + AZD7762; first compound 2 µM
  relative viability: 0.14
Entinostat + Pemetrexed; first compound 0.02 µM
  relative viability: 0.391
Entinostat + Pemetrexed; first compound 0.06325 µM
  relative viability: 0.322
Entinostat + Pemetrexed; first compound 0.2 µM
  relative viability: 0.304
Entinostat + Pemetrexed; first compound 0.6325 µM
  relative viability: 0.244
Entinostat + Pemetrexed; first compound 2 µM
  relative viability: 0.248

## A-427
SGI-1776 + Linsitinib; first compound 0.08 µM
  relative viability: 1.13
SGI-1776 + Linsitinib; first compound 0.8 µM
  relative viability: 1.19
SGI-1776 + Linsitinib; first compound 2.53 µM
  relative viability: 1.16
SGI-1776 + Linsitinib; first compound 8 µM
  relative viability: 1.07
Entinostat + OSI-027; first compound 0.02 µM
  relative viability: 0.505
Entinostat + OSI-027; first compound 0.06325 µM
  relative viability: 0.489
Entinostat + OSI-027; first compound 0.2 µM
  relative viability: 0.403
Entinostat + OSI-027; first compound 0.6325 µM
  relative viability: 0.395
Entinostat + OSI-027; first compound 2 µM
  relative viability: 0.343
Entinostat + AZD7762; first compound 0.02 µM
  relative viability: 0.703
Entinostat + AZD7762; first compound 0.06325 µM
  relative viability: 0.775
Entinostat + AZD7762; first compound 0.2 µM
  relative viability: 0.731
Entinostat + AZD7762; first compound 0.6325 µM
  relative viability: 0.584
Entinostat + AZD7762; first compound 2 µM
  relative viability: 0.428
Entinostat + Pemetrexed; first compound 0.02 µM
  relative viability: 1.03
Entinostat + Pemetrexed; first compound 0.06325 µM
  relative viability: 0.971
Entinostat + Pemetrexed; first compound 0.2 µM
  relative viability: 0.922
Entinostat + Pemetrexed; first compound 0.6325 µM
  relative viability: 0.904
Entinostat + Pemetrexed; first compound 2 µM
  relative viability: 0.765
